# Measurements: patent US5055302A, “Neuropeptide control of ocular growth” (Trustees of the University of Pennsylvania, priority 1990, dated 1991)
# Entries after “also recorded” stand apart in the source; their conditions may differ.
# How the values were obtained:
# lid-sutured eyes = experiment: Form deprivation myopia induced by eyelid suture in chicks; VIP given daily by subconjunctival injection to the sutured eye, ocular dimensions measured with calipers; type: in vivo, White Leghorn chicks; conditions: for Axial length (deprived minus control eye), mean ± S.E.M. / Equatorial diameter (deprived minus control eye), mean ± S.E.M.: subconjunctival
# Description: (§1) Form deprivation myopia in day-old White Leghorn chicks was induced by eyelid suture under aseptic conditions and ether anesthesia. One eyelid of the chicks was sutured. […] Translucent vision is permitted through the eyelid. The contralateral unsutured open eye served as the control eye. VIP was administered daily to the deprived, or sutured, eye. Saline was administered to the unsutured eye. All agents were given under ether anesthesia by subconjunctival injection. The chicks were maintained on a 12 hour light/dark cycle. The birds were killed at ages up to 4 weeks by decapitation under deep pentobarbital anesthesia. Axial and equatorial dimensions of unfixed eyes were measured with vernier calipers.
# (§2) VIP (porcine VIP, Peninsula Laboratories, Inc. Belmont Calif.) was administered in three (descending) dose levels to lid-sutured eyes of 23 chicks and to one eye of an additional 15 chicks which had both eyes open.
# open eyes = experiment: Effect of VIP on growth of open eyes (control chicks with both eyes open, one eye treated); type: in vivo, White Leghorn chicks; conditions: for Axial length (treated eye minus untreated eye), mean ± S.E.M. / Equatorial diameter (treated eye minus untreated eye), mean ± S.E.M.: open eyes, subconjunctival
# Description: as §1, §2
smiles,measurement,setting,value
"CC[C@H](C)[C@H](NC(=O)[C@H](CO)NC(=O)[C@H](CC(N)=O)NC(=O)[C@H](CC(C)C)NC(=O)[C@H](Cc1ccc(O)cc1)NC(=O)[C@H](CCCCN)NC(=O)[C@H](CCCCN)NC(=O)[C@@H](NC(=O)[C@H](C)NC(=O)[C@H](CCSC)NC(=O)[C@H](CCC(N)=O)NC(=O)[C@H](CCCCN)NC(=O)[C@H](CCCNC(=N)N)NC(=O)[C@H](CC(C)C)NC(=O)[C@H](CCCNC(=N)N)NC(=O)[C@@H](NC(=O)[C@H](Cc1ccc(O)cc1)NC(=O)[C@H](CC(N)=O)NC(=O)[C@H](CC(=O)O)NC(=O)[C@@H](NC(=O)[C@H](Cc1ccccc1)NC(=O)[C@@H](NC(=O)[C@H](C)NC(=O)[C@H](CC(=O)O)NC(=O)[C@H](CO)NC(=O)[C@@H](N)Cc1c[nH]cn1)C(C)C)[C@@H](C)O)[C@@H](C)O)C(C)C)C(=O)N[C@@H](CC(C)C)C(=O)N[C@@H](CC(N)=O)C(N)=O [VIP, vasoactive intestinal peptide]",Block of axial elongation,lid-sutured eyes; 0.25 μg dose,~80%
same,"Treatment effect on axial length, one way analysis of variance",lid-sutured eyes; (p<0.05),significant treatment effects
same,Treatment effect on equatorial diameters,"lid-sutured eyes; VIP treatment, all doses",no significant treatment effects
same,"Axial length (deprived minus control eye), mean ± S.E.M.",lid-sutured eyes; daily dose 0.025 μg,0.17 ± 0.10 mm
same,"Equatorial diameter (deprived minus control eye), mean ± S.E.M.",lid-sutured eyes; daily dose 0.025 μg,0.91 ± 0.05 mm
same,"Axial length (deprived minus control eye), mean ± S.E.M.",lid-sutured eyes; daily dose 0.25 μg,0.07 ± 0.07 mm
same,"Equatorial diameter (deprived minus control eye), mean ± S.E.M.",lid-sutured eyes; daily dose 0.25 μg,0.92 ± 0.04 mm
same,Effective range of the peptide,lid-sutured eyes; daily dose 2.5 μg,outside the effective range
same,"Axial length (deprived minus control eye), mean ± S.E.M.",lid-sutured eyes; daily dose 2.5 μg,0.34 ± 0.15 mm
same,"Equatorial diameter (deprived minus control eye), mean ± S.E.M.",lid-sutured eyes; daily dose 2.5 μg,0.90 ± 0.10 mm
same,"Treatment effect on axial length, one way analysis of variance",lid-sutured eyes; dose 0.25 μg (p<0.001),profound treatment effect; also recorded: significant treatment effects
same,Treatment effect on axial or equatorial diameters,"open eyes; controls (both eyes open), all three levels of VIP",no significant treatment effect
same,"Axial length (treated eye minus untreated eye), mean ± S.E.M.",open eyes; daily dose 0.025 μg,0.008 ± 0.10 mm
same,"Equatorial diameter (treated eye minus untreated eye), mean ± S.E.M.",open eyes; daily dose 0.025 μg,0.07 ± 0.04 mm
same,"Axial length (treated eye minus untreated eye), mean ± S.E.M.",open eyes; daily dose 0.25 μg,0.03 ± 0.05 mm
same,"Equatorial diameter (treated eye minus untreated eye), mean ± S.E.M.",open eyes; daily dose 0.25 μg,0.02 ± 0.02 mm
same,"Axial length (treated eye minus untreated eye), mean ± S.E.M.",open eyes; daily dose 2.5 μg,0.13 ± 0.06 mm
same,"Equatorial diameter (treated eye minus untreated eye), mean ± S.E.M.",open eyes; daily dose 2.5 μg,-0.01 ± 0.06 mm
